Test results from the C3SDB collision cross section collection.

Tests used:
[1] = instrument: DT, stepped-field
[2] = instrument: TW, calibrated with polyalanine
[3] = instrument: DT, single field, calibrated with Agilent tune mix (Agilent)
[4] = instrument: TW, calibrated with polyalanine; remark: listed apart in the source
[5] = instrument: DT, stepped-field; remark: listed apart in the source

## CCCCCCCCCCCC(=O)O [Lauric acid]
[1]; [M-H]-
  collision cross section (N2): 154.82 Å²

## CCC(C)[C@H](NC(=O)CNC(=O)[C@H](C)NC(=O)[C@H](Cc1ccccc1)NC(=O)[C@@H](NC(=O)[C@@H](N)CCSC)C(C)CC)C(=O)N[C@@H](CCCCN)C(=O)O (stereo not given in full) [MIFAGIK]
[1]; [M+2H]2+
  collision cross section (N2): 305.66 Å²
[1]; [M+H]+
  collision cross section (N2): 275.34 Å²

## CC(=O)OC[C@]12C[C@H](O)C(C)=C[C@H]1O[C@@H]1[C@H](O)[C@@H](OC(C)=O)[C@@]2(C)[C@]12CO2 [Neosolaniol]
[2]; [M+NH4]+
  collision cross section (N2): 198 Å²

## CCC(C)C(NC(=O)C(Cc1ccc(O)cc1)NC(=O)C1CCCN1C(=O)C(CCCN=C(N)N)NC(=O)C(CCCN=C(N)N)NC(=O)C1CCCN1C(=O)C(CCCCN)NC(=O)C(CC(N)=O)NC(=O)C(CCC(=O)O)NC(=O)C(Cc1ccc(O)cc1)NC(=O)C(CC(C)C)NC(=O)C1CCC(=O)N1)C(=O)NC(CC(C)C)C(=O)O (stereo not given) [Neurotensin]
[1]; [M+2H]2+
  collision cross section (N2): 434.32 Å²
[1]; [M+3H]3+
  collision cross section (N2): 525.02 Å²

## CCCCCCCCCCCCCCCC(=O)O [Palmitic acid]
[1]; [M-H]-
  collision cross section (N2): 169.12 Å²
[3]; [M+Na]+
  collision cross section (N2): 195 Å²
[3]; [M-H]-
  collision cross section (N2): 167.52 Å²

## C=C(C)[C@H]1O[C@H]2CC[C@@]3(C)[C@@](O)(CC[C@H]4[C@@H]5OC(C)(C)[C@H]6C[C@@H]7C(=C)Cc8c(Cl)cc9[nH]c(c5c9c8[C@@]76O)[C@@]43C)[C@]23O[C@@H]3[C@H]1O [Penitrem A]
[2]; [M+H]+
  collision cross section (N2): 253 Å²

## Cc1ncc(CO)c(C(=O)O)c1O [Pyridoxic acid]
[4]; [M+H]+
  collision cross section (N2): 130 Å²

## O=C[C@H](O)[C@H](O)[C@H](O)COP(=O)(O)O [Ribose 5-monophosphate]
[4]; [M+Na]+
  collision cross section (N2): 146 Å²

## CN=C(NC)NCCC[C@H](N)C(=O)O [SDMA]
[4]; [M+H]+
  collision cross section (N2): 142 Å²

## CC(=O)OC[C@]12C[C@H](OC(=O)CC(C)C)C(C)=C[C@H]1O[C@@H]1[C@H](O)[C@@H](OC(C)=O)[C@@]2(C)[C@]12CO2 [T-2 toxin]
[2]; [M+NH4]+
  collision cross section (N2): 214 Å²

## NCCS(=O)(=O)O [Taurine]
[4]; [M+H]+
  collision cross section (N2): 124 Å²
[3]; [M+H-H2O]+
  collision cross section (N2): 135.4 Å²

## CC(C)C[C@@H]1NC(=O)[C@H](C)N(C)C(=O)CNC(=O)/C(=C/c2ccccc2)N(C)C1=O [Tentoxin]
[2]; [M+H]+
  collision cross section (N2): 202 Å²

## CC[C@H](C)[C@@H]1NC(=O)C(C(C)=O)=C1O [Tenuazonic acid]
[2]; [M+H]+
  collision cross section (N2): 135 Å²

## Cc1c[nH]c(=O)[nH]c1=O [Thymine]
[4]; [M+H]+
  collision cross section (N2): 115 Å²
[5]; [M+H]+
  collision cross section (N2): 126.14 Å²
[3]; [M+H]+
  collision cross section (N2): 121.9 Å²
[3]; [M-H]-
  collision cross section (N2): 117.39 Å²

## N[C@@H](Cc1c[nH]c2ccccc12)C(=O)O [Tryptophan]
[4]; [M+H]+
  collision cross section (N2): 145 Å²

## O=c1ccn([C@@H]2O[C@H](COP(=O)(O)O)[C@@H](O)[C@H]2O)c(=O)[nH]1 [UMP]
[4]; [M+Na]+
  collision cross section (N2): 168 Å²

## O=c1[nH]c(=O)c2ncn([C@@H]3O[C@H](CO)[C@@H](O)[C@H]3O)c2[nH]1 [Xanthosine]
[4]; [M+H]+
  collision cross section (N2): 158 Å²
[5]; [M+H]+
  collision cross section (N2): 166.49 Å²
[5]; [M+Na]+
  collision cross section (N2): 177.45 Å²
[3]; [M+Na]+
  collision cross section (N2): 172.8 Å²

## C[C@H]1CCCC(=O)CCC/C=C/c2cc(O)cc(O)c2C(=O)O1 [Zearalenone]
[2]; [M-H]-
  collision cross section (N2): 170 Å²

## Nc1ncnc2c1ncn2[C@@H]1O[C@@H]2COP(=O)(O)O[C@H]2[C@H]1O [cAMP]
[4]; [M+H]+
  collision cross section (N2): 172 Å²

## N[C@@H](CCC(=O)N[C@@H](CS)C(=O)NCC(=O)O)C(=O)O [glutathione]
[4]; [M+H]+
  collision cross section (N2): 165 Å²

## OC[C@H]1O[C@@H](O[C@H]2[C@H](O)[C@@H](O)[C@H](O)O[C@@H]2CO)[C@H](O)[C@@H](O)[C@H]1O [lactose]
[4]; [M+Na]+
  collision cross section (N2): 173 Å²

## OC[C@H]1O[C@H](OC[C@H]2O[C@H](O[C@]3(CO)O[C@H](CO)[C@@H](O)[C@@H]3O)[C@H](O)[C@@H](O)[C@@H]2O)[C@H](O)[C@@H](O)[C@H]1O [raffinose]
[4]; [M+Na]+
  collision cross section (N2): 210 Å²

## OC[C@H]1O[C@@](CO)(O[C@H]2O[C@H](CO)[C@@H](O)[C@H](O)[C@H]2O)[C@@H](O)[C@@H]1O [sucrose]
[4]; [M+Na]+
  collision cross section (N2): 170 Å²

## OC[C@H]1O[C@H](O[C@H]2O[C@H](CO)[C@@H](O)[C@H](O)[C@H]2O)[C@H](O)[C@@H](O)[C@@H]1O [trehalose]
[4]; [M+Na]+
  collision cross section (N2): 173 Å²
